In one assay the test system is Vero. Nature of the assay: viability of Vero cells under compound – cytotoxicity control for flavivirus capping enzyme inhibitors (AID 588742). It counts as functional. Conditions: Chlorocebus sabaeus.
The test system of the next assay is HEK293. Put plainly: HEK293T cell viability loss, resazurin readout – resazurin fluorescence, cytotoxicity control for NF-kB activator project, SAR follow-up (AID 493251). Conditions: Homo sapiens. The format is functional, cell-based.
The target of assay [1] is 5-hydroxytryptamine receptor 5A (Homo sapiens, UniProt P47898). Put plainly: Counterscreen for agonists of OPRM1-OPRD1 heterodimerization: luminescence-based cell-based high throughput dose response assay to identify agonists of 5-hydroxytryptamine (serotonin) 5A receptor (HTR5A). [Related pubchem assays (depositor defined):AID504326, AID504355, AID504692, AID504904, AID504905]. It counts as functional.
5-hydroxytryptamine receptor 5A, sequence (P47898 whole entry): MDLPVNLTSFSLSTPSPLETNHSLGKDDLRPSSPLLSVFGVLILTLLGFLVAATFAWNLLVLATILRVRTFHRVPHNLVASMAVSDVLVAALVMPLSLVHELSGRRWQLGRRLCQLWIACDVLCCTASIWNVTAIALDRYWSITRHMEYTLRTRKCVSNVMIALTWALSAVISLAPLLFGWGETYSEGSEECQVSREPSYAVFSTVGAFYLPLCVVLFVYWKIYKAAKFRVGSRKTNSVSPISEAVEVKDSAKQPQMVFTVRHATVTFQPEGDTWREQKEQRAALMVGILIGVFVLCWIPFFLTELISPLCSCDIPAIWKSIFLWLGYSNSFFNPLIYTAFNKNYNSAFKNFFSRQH

A short description of assay [2]: viability loss in CEM21 cells – cell-based, CellTiter-Glo luminescence, cherry-picked, cytotoxicity control for viral fusion inhibitor project, dose response (AID 652042).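 Further: potency for signal decrease meaning cytotoxicity.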 It counts as functional.
The nature of assay [3]: alpha-synuclein stem-loop luciferase translation blockers – H4 neuroglioma cells, luminescence, confirmation (AID 1988). The format is functional, cell-based.
Assay [4] deals with T1, Heat shock factor protein 1 (Mus musculus, UniProt P38532).
T1 sequence (P38532 whole entry): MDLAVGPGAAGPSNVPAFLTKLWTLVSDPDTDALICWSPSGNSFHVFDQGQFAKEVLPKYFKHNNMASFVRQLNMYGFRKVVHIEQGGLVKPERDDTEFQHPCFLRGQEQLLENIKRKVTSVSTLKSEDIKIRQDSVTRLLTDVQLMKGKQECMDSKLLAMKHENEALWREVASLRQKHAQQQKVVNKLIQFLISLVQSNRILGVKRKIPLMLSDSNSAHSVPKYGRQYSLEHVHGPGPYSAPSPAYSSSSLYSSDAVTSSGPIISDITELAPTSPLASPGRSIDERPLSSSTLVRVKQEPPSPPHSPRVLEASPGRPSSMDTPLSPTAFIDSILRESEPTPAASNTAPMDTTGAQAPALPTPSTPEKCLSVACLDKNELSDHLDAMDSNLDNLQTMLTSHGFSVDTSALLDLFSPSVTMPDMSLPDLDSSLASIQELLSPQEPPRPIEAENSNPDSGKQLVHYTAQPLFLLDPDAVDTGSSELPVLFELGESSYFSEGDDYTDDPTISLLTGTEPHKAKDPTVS
Put plainly: decrease of HSF1-responsive luciferase luminescence – cell-based, NIH3T3, dose retest, confirmation (AID 2382).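 Further: NIH3T3 fibroblasts with HSF1-driven luciferase reporter stressed by proteasome inhibitor MG132; luminescence from HSF1-driven luciferase expression after 8 hours of MG132 stress.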 The format is functional.

Active and inactive are the calls of the source.

Take `O=[N+]([O-])c1c(NCCO)cc(Sc2nc3ccccc3s2)c2nonc12`: the CC50 in the assay with Vero was 32.9 µM (active). `CC(=O)NC(c1ccc2ccccc2c1)c1ccc2cccnc2c1O` (stereo unspecified): in the assay on HEK293, the IC50 is 21.5 µM (inactive).

Consider `CCc1ccc(Nc2n[n+](-c3ccccc3)c(-c3c(Cl)cccc3Cl)s2)cc1`, for which the EC50 in assay [1] is > 92.5 µM (inactive). Besides, in assay [2], the AC50 was 10.8 µM (active). Regarding `CCOC(=O)c1c(C)[nH]c2c1-c1ccccc1C(=O)C2=O`, the EC50 was 0.254 µM (active) in assay [3] and 1.57 µM (active) in assay [4].

(Values after ChEMBL document CHEMBL1201862, “PubChem BioAssay data set” (2004).)
